# According to paper PMC5218480 (PLoS ONE, 2017):
# Test system: MV-4-11 cells
# Assay: Gene expression microarray analysis (Affymetrix PrimeView) and GSEA
# Type: cell-based, human
# Parameters: RFU PODN (11730768_x_at) / Fold change /veh PODN (11730768_x_at) / RFU LINC00158 (11744669_a_at) / Fold change /veh LINC00158 (11744669_a_at) / RFU DUSP10 (11751237_a_at) / Fold change /veh DUSP10 (11751237_a_at) / RFU ID3 (11757404_x_at) / Fold change /veh ID3 (11757404_x_at) / RFU PLEKHG5 (11737974_s_at) / Fold change /veh PLEKHG5 (11737974_s_at) / RFU LRRC4B (11730491_at) / Fold change /veh LRRC4B (11730491_at) / RFU GIMAP4 (11747438_a_at) / Fold change /veh GIMAP4 (11747438_a_at) / RFU KRT8 (11758183_x_at) / Fold change /veh KRT8 (11758183_x_at) / RFU CNN1 (11734310_a_at) / Fold change /veh CNN1 (11734310_a_at) / RFU VPS37D (11726825_at) / Fold change /veh VPS37D (11726825_at) / RFU C10orf10 (11716522_x_at) / Fold change /veh C10orf10 (11716522_x_at) / RFU KIR2DL2 /// KIR2DL4 /// KIR2DL5A /// KIR2DL5B /// KIR2DS1 /// KIR2DS2 /// KIR2DS3 /// KIR2DS4 /// KIR3DL3 /// KIR3DL3 /// KIR3DS1 (11738374_at) / Fold change /veh KIR2DL2 /// KIR2DL4 /// KIR2DL5A /// KIR2DL5B /// KIR2DS1 /// KIR2DS2 /// KIR2DS3 /// KIR2DS4 /// KIR3DL3 /// KIR3DL3 /// KIR3DS1 (11738374_at) / RFU C1QL1 (11718748_at) / Fold change /veh C1QL1 (11718748_at) / RFU TMPRSS4 (11747572_a_at) / Fold change /veh TMPRSS4 (11747572_a_at) / RFU HAMP (11756126_x_at) / Fold change /veh HAMP (11756126_x_at) / RFU RNFT2 (11725882_a_at) / Fold change /veh RNFT2 (11725882_a_at) / RFU NR4A2 (11747474_a_at) / Fold change /veh NR4A2 (11747474_a_at) / RFU ABCC12 (11746883_a_at) / Fold change /veh ABCC12 (11746883_a_at) / RFU TMEM136 (11760407_x_at) / Fold change /veh TMEM136 (11760407_x_at) / RFU CLDN22 /// WWC2 (11732394_at) / Fold change /veh CLDN22 /// WWC2 (11732394_at) / RFU HLA-DPB1 (11760878_x_at) / Fold change /veh HLA-DPB1 (11760878_x_at) / RFU SPINT1 (11716480_a_at) / Fold change /veh SPINT1 (11716480_a_at) / RFU GAP43 (11754022_s_at) / Fold change /veh GAP43 (11754022_s_at) / RFU A4GNT (11735810_at) / Fold change /veh A4GNT (11735810_at) / RFU PRB3 (11715151_x_at) / Fold change /veh PRB3 (11715151_x_at) / RFU TUBB4B (11761932_at) / Fold change /veh TUBB4B (11761932_at) / RFU CAPN14 (11732068_a_at) / Fold change /veh CAPN14 (11732068_a_at) / RFU TMCC2 (11721928_a_at) / Fold change /veh TMCC2 (11721928_a_at) / RFU IRGQ (11745062_a_at) / Fold change /veh IRGQ (11745062_a_at) / RFU FAM174B (11720279_a_at) / Fold change /veh FAM174B (11720279_a_at) / RFU TMPRSS4 (11748680_a_at) / Fold change /veh TMPRSS4 (11748680_a_at) / RFU FAM212B (11763350_a_at) / Fold change /veh FAM212B (11763350_a_at) / RFU PLEKHG5 (11743358_a_at) / Fold change /veh PLEKHG5 (11743358_a_at) / RFU ZSCAN30 (11745921_a_at) / Fold change /veh ZSCAN30 (11745921_a_at) / RFU CMKLR1 (11741424_a_at) / Fold change /veh CMKLR1 (11741424_a_at) / RFU LOC101060620 /// MAPK8IP1 (11723275_at) / Fold change /veh LOC101060620 /// MAPK8IP1 (11723275_at) / RFU SPTSSB (11747773_x_at) / Fold change /veh SPTSSB (11747773_x_at) / RFU PRSS12 (11739890_at) / Fold change /veh PRSS12 (11739890_at) / RFU BIN1 (11741810_x_at) / Fold change /veh BIN1 (11741810_x_at) / RFU WNT11 (11732464_a_at) / Fold change /veh WNT11 (11732464_a_at) / RFU C10orf10 (11716521_a_at) / Fold change /veh C10orf10 (11716521_a_at) / RFU C5orf56 (11738089_at) / Fold change /veh C5orf56 (11738089_at) / RFU CYB561 (11721691_x_at) / Fold change /veh CYB561 (11721691_x_at) / RFU ANKRD19P (11752326_a_at) / Fold change /veh ANKRD19P (11752326_a_at) / RFU OR2T12 /// OR2T33 /// OR2T8 (11738714_s_at) / Fold change /veh OR2T12 /// OR2T33 /// OR2T8 (11738714_s_at) / RFU VCAN (11748164_a_at) / Fold change /veh VCAN (11748164_a_at) / RFU JSRP1 (11732532_at) / Fold change /veh JSRP1 (11732532_at) / RFU KRTAP10-11 (11738290_x_at) / Fold change /veh KRTAP10-11 (11738290_x_at) / RFU MYO3A (11730013_a_at) / Fold change /veh MYO3A (11730013_a_at) / RFU EBF3 (11725865_a_at) / Fold change /veh EBF3 (11725865_a_at) / RFU CAMK2N1 (11719241_x_at) / Fold change /veh CAMK2N1 (11719241_x_at) / RFU C5orf56 (11738088_a_at) / Fold change /veh C5orf56 (11738088_a_at) / RFU OLFML3 (11715873_a_at) / Fold change /veh OLFML3 (11715873_a_at) / RFU LOC100653217 /// NTM (11731650_a_at) / Fold change /veh LOC100653217 /// NTM (11731650_a_at) / RFU MAPK11 (11762145_a_at) / Fold change /veh MAPK11 (11762145_a_at) / RFU FIZ1 (11724087_x_at) / Fold change /veh FIZ1 (11724087_x_at) / RFU OASL (11726364_x_at) / Fold change /veh OASL (11726364_x_at) / RFU SOX15 (11748057_x_at) / Fold change /veh SOX15 (11748057_x_at) / RFU CD79A (11719716_a_at) / Fold change /veh CD79A (11719716_a_at) / RFU HIST1H1D (11736915_at) / Fold change /veh HIST1H1D (11736915_at) / RFU CASKIN2 (11723855_a_at) / Fold change /veh CASKIN2 (11723855_a_at) / RFU LOC730098 (11760151_x_at) / Fold change /veh LOC730098 (11760151_x_at) / RFU OR4N2 (11742367_at) / Fold change /veh OR4N2 (11742367_at) / RFU PRRT2 (11749266_a_at) / Fold change /veh PRRT2 (11749266_a_at) / RFU SNX32 (11753110_a_at) / Fold change /veh SNX32 (11753110_a_at) / RFU CDHR5 (11726645_a_at) / Fold change /veh CDHR5 (11726645_a_at) / RFU RCAN1 (11760418_a_at) / Fold change /veh RCAN1 (11760418_a_at) / RFU FAM167A (11723789_a_at) / Fold change /veh FAM167A (11723789_a_at) / RFU FAM26E (11764081_at) / Fold change /veh FAM26E (11764081_at) / RFU ISYNA1 (11749810_s_at) / Fold change /veh ISYNA1 (11749810_s_at) / RFU ACY1 (11761880_at) / Fold change /veh ACY1 (11761880_at) / RFU 11764098_at / Fold change /veh 11764098_at / RFU SAMD14 (11745864_x_at) / Fold change /veh SAMD14 (11745864_x_at) / RFU NPB (11741838_a_at) / Fold change /veh NPB (11741838_a_at) / RFU TMPRSS6 (11731388_a_at) / Fold change /veh TMPRSS6 (11731388_a_at) / RFU KRTAP10-2 (11738614_at) / Fold change /veh KRTAP10-2 (11738614_at) / RFU ARHGAP8 /// PRR5-ARHGAP8 (11727945_x_at) / Fold change /veh ARHGAP8 /// PRR5-ARHGAP8 (11727945_x_at) / RFU KRTAP5-7 /// NADSYN1 (11734609_at) / Fold change /veh KRTAP5-7 /// NADSYN1 (11734609_at) / RFU RASL12 (11751679_a_at) / Fold change /veh RASL12 (11751679_a_at) / RFU CDKN2B (11736163_a_at) / Fold change /veh CDKN2B (11736163_a_at) / RFU PRF1 (11729649_at) / Fold change /veh PRF1 (11729649_at) / RFU, ZNF638 /// ZNF638-IT1 / Fold change vs veh, ZNF638 /// ZNF638-IT1 / RFU, PANK3 / Fold change vs veh, PANK3 / RFU, SH3YL1 / Fold change vs veh, SH3YL1 / RFU, ZEB2 / Fold change vs veh, ZEB2 / RFU, NRIP1 / Fold change vs veh, NRIP1 / RFU, PTTG1IP / Fold change vs veh, PTTG1IP / RFU, CAPN2 / Fold change vs veh, CAPN2 / RFU, MED14 / Fold change vs veh, MED14 / RFU, SNORA58 / Fold change vs veh, SNORA58 / RFU, C1orf63 / Fold change vs veh, C1orf63 / RFU, LRRFIP1 / Fold change vs veh, LRRFIP1 / RFU, NDUFAF7 / Fold change vs veh, NDUFAF7 / RFU, SLC12A2 / Fold change vs veh, SLC12A2 / RFU, IBTK / Fold change vs veh, IBTK / RFU, ESF1 / Fold change vs veh, ESF1 / Fold change vs veh, TMEM50B / RFU, TAOK1 / Fold change vs veh, TAOK1 / RFU, ACBD3 / Fold change vs veh, ACBD3 / RFU, TMA16 / Fold change vs veh, TMA16 / RFU, RWDD3 / Fold change vs veh, RWDD3 / RFU, BCAT1 / Fold change vs veh, BCAT1 / RFU, EDEM3 / Fold change vs veh, EDEM3 / RFU, TMEM33 / Fold change vs veh, TMEM33 / RFU, WDR75 / Fold change vs veh, WDR75 / RFU, AHCTF1 / Fold change vs veh, AHCTF1 / RFU, TFRC / Fold change vs veh, TFRC / RFU, ZDHHC17 / Fold change vs veh, ZDHHC17 / RFU, NOM1 / Fold change vs veh, NOM1 / RFU, ARL8B / Fold change vs veh, ARL8B / RFU, ZBTB11 / Fold change vs veh, ZBTB11 / RFU, TAMM41 / Fold change vs veh, TAMM41 / RFU, KIAA1704 /// LOC100996395 / Fold change vs veh, KIAA1704 /// LOC100996395 / RFU, ING1 / Fold change vs veh, ING1 / RFU, TRMT61B / Fold change vs veh, TRMT61B / RFU, FUBP3 / Fold change vs veh, FUBP3 / RFU, TP53 / Fold change vs veh, TP53 / RFU, TNKS2 / Fold change vs veh, TNKS2 / RFU, ZFP14 / Fold change vs veh, ZFP14 / RFU, ACTR2 / Fold change vs veh, ACTR2 / RFU, PPP3R1 / Fold change vs veh, PPP3R1 / RFU, PIK3R1 / Fold change vs veh, PIK3R1 / RFU, HNRNPA1 / Fold change vs veh, HNRNPA1 / RFU, RNF170 / Fold change vs veh, RNF170 / RFU, ZNF28 / Fold change vs veh, ZNF28 / RFU, RNGTT / Fold change vs veh, RNGTT / RFU, OGT / Fold change vs veh, OGT / RFU, BRD1 / Fold change vs veh, BRD1 / RFU, MARS / Fold change vs veh, MARS / RFU, ZNF655 / Fold change vs veh, ZNF655 / RFU, FAHD1 / Fold change vs veh, FAHD1 / RFU, BDP1 / Fold change vs veh, BDP1 / RFU, LRRCC1 / Fold change vs veh, LRRCC1 / RFU, ARID1A / Fold change vs veh, ARID1A / RFU, ZNF146 / Fold change vs veh, ZNF146 / RFU, ZNF330 / Fold change vs veh, ZNF330 / RFU, GPN3 / Fold change vs veh, GPN3 / RFU, C9orf123 / Fold change vs veh, C9orf123 / RFU, N4BP2L2 / Fold change vs veh, N4BP2L2 / RFU, ARFIP1 / Fold change vs veh, ARFIP1 / RFU, FAM179B / Fold change vs veh, FAM179B / RFU, BCL10 / Fold change vs veh, BCL10 / RFU, UHRF1BP1L / Fold change vs veh, UHRF1BP1L / RFU, BET1 / Fold change vs veh, BET1 / RFU, CNOT2 / Fold change vs veh, CNOT2 / RFU, ZNF268 / Fold change vs veh, ZNF268 / Fold change vs veh, ZNF507 / RFU, DGCR2 / Fold change vs veh, DGCR2 / RFU, WDSUB1 / Fold change vs veh, WDSUB1 / Fold change vs veh, HSP90B1 /// MIR3652 / RFU, ADSS / Fold change vs veh, ADSS / RFU, GK / Fold change vs veh, GK / RFU, ZNF148 / Fold change vs veh, ZNF148 / RFU, TAF9 / Fold change vs veh, TAF9 / RFU, SLC1A5 / Fold change vs veh, SLC1A5 / RFU, SLMO2 / Fold change vs veh, SLMO2 / RFU, ABCC4 / Fold change vs veh, ABCC4 / RFU, LOC101060439 /// RAP1B / Fold change vs veh, LOC101060439 /// RAP1B / RFU, RFX7 / Fold change vs veh, RFX7 / RFU, GTPBP10 / Fold change vs veh, GTPBP10 / RFU, CNEP1R1 / Fold change vs veh, CNEP1R1 / RFU, BIVM-ERCC5 /// ERCC5 / Fold change vs veh, BIVM-ERCC5 /// ERCC5 / RFU, ILF3 / Fold change vs veh, ILF3 / RFU 11762660_at / Fold change /veh 11762660_at / RFU VCAN (11757783_s_at) / Fold change /veh VCAN (11757783_s_at) / RFU DDX43 (11728927_at) / Fold change /veh DDX43 (11728927_at) / RFU KRT8 (11758188_x_at) / Fold change /veh KRT8 (11758188_x_at) / RFU NKD1 (11759106_at) / Fold change /veh NKD1 (11759106_at) / RFU SRD5A1 (11742802_a_at) / Fold change /veh SRD5A1 (11742802_a_at) / RFU TPSAB1 /// TPSB2 (11721975_s_at) / Fold change /veh TPSAB1 /// TPSB2 (11721975_s_at) / RFU GSTM3 (11746129_a_at) / Fold change /veh GSTM3 (11746129_a_at) / RFU IL23R (11737362_x_at) / Fold change /veh IL23R (11737362_x_at) / RFU TMEM51 (11727254_a_at) / Fold change /veh TMEM51 (11727254_a_at) / RFU PIWIL2 (11732686_x_at) / Fold change /veh PIWIL2 (11732686_x_at) / RFU ORM1 (11744905_x_at) / Fold change /veh ORM1 (11744905_x_at) / RFU CCDC152 (11743942_at) / Fold change /veh CCDC152 (11743942_at) / RFU ECM1 (11717891_a_at) / Fold change /veh ECM1 (11717891_a_at) / RFU IL23R (11748794_a_at) / Fold change /veh IL23R (11748794_a_at) / RFU TNFAIP8L3 (11732012_x_at) / Fold change /veh TNFAIP8L3 (11732012_x_at) / RFU MBOAT4 (11741988_at) / Fold change /veh MBOAT4 (11741988_at) / RFU 11764193_at / Fold change /veh 11764193_at / RFU TMEM53 (11763286_at) / Fold change /veh TMEM53 (11763286_at) / RFU MAGEB2 (11727129_at) / Fold change /veh MAGEB2 (11727129_at) / RFU TMEM200A (11744735_a_at) / Fold change /veh TMEM200A (11744735_a_at) / RFU CCDC152 (11751479_a_at) / Fold change /veh CCDC152 (11751479_a_at) / RFU FAM211A (11726209_a_at) / Fold change /veh FAM211A (11726209_a_at) / RFU RGS16 (11746705_a_at) / Fold change /veh RGS16 (11746705_a_at) / RFU VCAN (11755009_s_at) / Fold change /veh VCAN (11755009_s_at) / RFU RHOB (11743442_s_at) / Fold change /veh RHOB (11743442_s_at) / RFU RGS16 (11720943_a_at) / Fold change /veh RGS16 (11720943_a_at) / RFU RGS16 (11720944_at) / Fold change /veh RGS16 (11720944_at) / RFU, VPS4B / Fold change vs veh, VPS4B / RFU, CREB1 / Fold change vs veh, CREB1 / RFU, DNAJC13 / Fold change vs veh, DNAJC13 / RFU, GNAQ / Fold change vs veh, GNAQ / RFU, CDK5R1 / Fold change vs veh, CDK5R1 / RFU, ZRANB3 / Fold change vs veh, ZRANB3 / RFU, CUL4A / Fold change vs veh, CUL4A / RFU, CCNY / Fold change vs veh, CCNY / RFU, UFL1 / Fold change vs veh, UFL1 / RFU, COG3 / Fold change vs veh, COG3 / RFU, DIAPH2 / Fold change vs veh, DIAPH2 / RFU, SKA2 / Fold change vs veh, SKA2 / RFU, AFF3 / Fold change vs veh, AFF3 / RFU, LMF1 / Fold change vs veh, LMF1 / RFU, IPO11 / Fold change vs veh, IPO11 / RFU, DFFB / Fold change vs veh, DFFB / RFU, FOXP1 / Fold change vs veh, FOXP1 / RFU, CARD8 / Fold change vs veh, CARD8 / RFU, STRN3 / Fold change vs veh, STRN3 / RFU, ADK / Fold change vs veh, ADK / RFU, RASSF2 / Fold change vs veh, RASSF2 / RFU, WIPF1 / Fold change vs veh, WIPF1 / RFU, LARP1B / Fold change vs veh, LARP1B / RFU, RASA1 / Fold change vs veh, RASA1 / RFU, RB1 / Fold change vs veh, RB1 / RFU, PPFIA1 / Fold change vs veh, PPFIA1 / RFU, MAT2A / Fold change vs veh, MAT2A / RFU, CCT5 / Fold change vs veh, CCT5 / RFU, WDR92 / Fold change vs veh, WDR92 / RFU, CUX1 / Fold change vs veh, CUX1 / RFU, TTC7A / Fold change vs veh, TTC7A / RFU, TMEM135 / Fold change vs veh, TMEM135 / RFU, DEPTOR / Fold change vs veh, DEPTOR / RFU, CPM / Fold change vs veh, CPM / RFU, DNAJB6 / Fold change vs veh, DNAJB6 / RFU, CACNA2D3 / Fold change vs veh, CACNA2D3 / RFU, DTX4 / Fold change vs veh, DTX4 / RFU, TFCP2 / Fold change vs veh, TFCP2 / RFU, GMCL1 /// GMCL1P1 / Fold change vs veh, GMCL1 /// GMCL1P1 / RFU, AEBP2 / Fold change vs veh, AEBP2 / RFU, SNHG1 /// SNORD22 /// SNORD25 /// SNORD26 /// SNORD27 /// SNORD28 /// SNORD29 /// SNORD31 / Fold change vs veh, SNHG1 /// SNORD22 /// SNORD25 /// SNORD26 /// SNORD27 /// SNORD28 /// SNORD29 /// SNORD31 / Fold change (Aza/veh), C12orf56 (ProbeSet 11735607_a_at) / Fold change (ACY-1035/veh), C12orf56 (ProbeSet 11735607_a_at) / Fold change (Aza/veh), FGFR1OP (ProbeSet 11751329_s_at) / Fold change (ACY-1035/veh), FGFR1OP (ProbeSet 11751329_s_at) / Fold change (Aza/veh), VPS36 (ProbeSet 11739960_a_at) / Fold change (ACY-1035/veh), VPS36 (ProbeSet 11739960_a_at) / RFU SYPL1 (11715823_x_at) / Fold change /veh SYPL1 (11715823_x_at) / RFU IGFBP7 (11715501_s_at) / Fold change /veh IGFBP7 (11715501_s_at) / RFU REEP3 (11722064_at) / Fold change /veh REEP3 (11722064_at) / RFU IGLL1 (11728026_x_at) / Fold change /veh IGLL1 (11728026_x_at): dose or concentration left out as unconfirmed
# Details: MV-4-11 cells, 48 hours
compound,measurement,value
Nc1ccc(-c2cccs2)cc1NC(=O)c1ccc2c(c1)cc(C1CC1)n2CCN1CCOCC1 [ACY-1035],Fold change /veh VCAN (11755009_s_at),1.16
